“And” between values parts separate entries of the source, which are not always exact repeats. Equal values may be shown once.
What was measured:
[1] = molecular target: T1, CCR9 (Homo sapiens, UniProt P51686); assay: PathHunter β-arrestin GpcrMAX assay; type: cell-based
T1 construct: host or cells: CHO-K1
T1 sequence (P51686 1-369): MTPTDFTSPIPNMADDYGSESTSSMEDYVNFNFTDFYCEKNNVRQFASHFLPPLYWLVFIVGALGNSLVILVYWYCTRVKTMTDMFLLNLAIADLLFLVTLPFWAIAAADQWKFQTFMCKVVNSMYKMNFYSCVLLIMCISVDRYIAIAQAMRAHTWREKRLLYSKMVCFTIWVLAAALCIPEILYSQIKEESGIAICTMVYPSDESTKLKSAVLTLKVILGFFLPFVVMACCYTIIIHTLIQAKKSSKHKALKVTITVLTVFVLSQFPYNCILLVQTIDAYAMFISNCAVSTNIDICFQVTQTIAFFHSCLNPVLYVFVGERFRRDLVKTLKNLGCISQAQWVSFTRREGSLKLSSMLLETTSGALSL
Protocol: (§1) GpcrMAX panel biosensor assays were used to characterize taveuniamide F (4, 20 µM) (agonist and antagonist mode). The experiments were carried out by DiscoveRx Corporation (Fremont, CA, USA) as described before, using PathHunter β-arrestin enzyme fragment complementation (EFC) technology.
(§2) Dose–response curves were obtained by subjecting taveuniamide F (4) to a secondary antagonist screen utilizing ten GPCR biosensor assays (Arrestin) against the following targets: GPR119, NPSR1b, HTR2C, CCR9, CHRM4, GPR120, HTR2A, GPR103, CNR1, and CNR2. Stably transfected HEK293 cells expressing GPR119, U2OS cells expressing NPSR1b, HTR2C and HTR2A, and CHO-K1 cells expressing the rest of the mentioned receptors, were incubated with 4 for 30 min. The assays were performed at 10-point concentrations using 3-fold serial dilutions in duplicate, where the highest concentration was 50 µM.

[2] = molecular target: T2, CNR2 (Homo sapiens, UniProt P34972); assay: PathHunter β-arrestin GpcrMAX assay; type: cell-based
T2 construct: purchased DiscoveRx (Eurofins) gpcrMAX PathHunter β-arrestin panel
Protocol: as §1, §2

[3] = molecular target: T3, GPR103 (Homo sapiens, UniProt Q96P65); assay: PathHunter β-arrestin GpcrMAX assay; type: cell-based
T3 construct: host or cells: CHO-K1
T3 sequence (Q96P65 1-431): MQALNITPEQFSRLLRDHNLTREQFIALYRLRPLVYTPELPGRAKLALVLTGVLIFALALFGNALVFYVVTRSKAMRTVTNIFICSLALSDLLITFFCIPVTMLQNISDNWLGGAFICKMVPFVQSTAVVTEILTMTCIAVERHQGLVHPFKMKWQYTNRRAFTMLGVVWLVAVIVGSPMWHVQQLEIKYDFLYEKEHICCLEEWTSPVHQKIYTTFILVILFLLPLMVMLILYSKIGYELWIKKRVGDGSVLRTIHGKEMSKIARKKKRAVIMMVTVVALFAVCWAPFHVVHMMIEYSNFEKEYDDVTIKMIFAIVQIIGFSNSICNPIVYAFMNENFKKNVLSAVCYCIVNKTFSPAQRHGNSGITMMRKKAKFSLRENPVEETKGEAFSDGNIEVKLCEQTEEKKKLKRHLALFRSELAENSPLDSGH
Protocol: as §1, §2

[4] = molecular target: T4, GPR119 (Homo sapiens, UniProt Q8TDV5); assay: PathHunter β-arrestin GpcrMAX assay; type: cell-based
T4 construct: host or cells: HEK293
Protocol: as §1, §2

[5] = molecular target: T5, GPR120 (Homo sapiens, UniProt Q5NUL3); assay: PathHunter β-arrestin GpcrMAX assay; type: cell-based
T5 construct: host or cells: CHO-K1
T5 sequence (Q5NUL3 1-361): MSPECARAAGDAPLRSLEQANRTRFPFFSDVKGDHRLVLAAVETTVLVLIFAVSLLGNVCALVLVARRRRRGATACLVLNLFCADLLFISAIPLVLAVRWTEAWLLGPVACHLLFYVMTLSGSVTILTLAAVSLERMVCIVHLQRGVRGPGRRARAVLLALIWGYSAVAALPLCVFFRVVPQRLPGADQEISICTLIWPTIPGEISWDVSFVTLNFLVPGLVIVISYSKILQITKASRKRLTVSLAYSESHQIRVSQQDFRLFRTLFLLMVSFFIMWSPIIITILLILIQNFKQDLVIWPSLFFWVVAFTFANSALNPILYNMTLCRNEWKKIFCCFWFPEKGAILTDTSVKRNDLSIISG
Protocol: as §1, §2

[6] = molecular target: T6, HTR2A (Homo sapiens, UniProt P28223); assay: PathHunter β-arrestin GpcrMAX assay; type: cell-based
T6 construct: host or cells: U2OS
Protocol: as §1, §2

[7] = molecular target: T7, human recombinant cannabinoid CNR1 receptors (Homo sapiens, UniProt P21554); assay: Competitive radioligand binding assay ([3H]SR141716A); settings: 2 nM [3H]SR141716A, 60 min, 37 °C, Chem-1 cell membranes
T7 construct: host or cells: rat hematopoietic Chem-1 cells (membrane homogenate)
Protocol: (a) Competitive radioligand binding assay of 4 to CNR1. Membrane homogenate of rat hematopoietic Chem-1 cells expressing human recombinant CNR1 receptors is incubated with 2 nM [3H]SR141716A for 60 min at 37 °C. […] (b) Effect of 4 in CNR1 cAMP functional assay in agonist and antagonist mode. Experiments were carried out as technical duplicates. Data are presented as mean ± SD (n = 2).
The assay was carried out by Eurofins Panlabs Discovery Services (New Taipei City, Taiwan). Human recombinant cannabinoid CNR1 receptors expressed in rat hematopoietic Chem-1 cells were used in modified HEPES buffer (50 mM HEPES, pH 7.4, 5 mM MgCl2, 1 mM CaCl2, 0.2% BSA). A 5 µg aliquot of membrane homogenate was incubated with 2 nM [^3H]SR141716A for 60 min at 37 °C. […] Membranes were filtered and washed four times and the filters were counted to determine [^3H]SR141716A as specifically bound. Compound 4 was screened at 8 concentrations, where the highest concentration was 50 µM. […] The experiments were carried out as technical duplicates.

[8] = antagonist dose–response, 10-point, CHO-K1 cells, 30 min
[9] = antagonist mode (% inhibition), 20 µM

T4 sequence (Q8TDV5 whole entry): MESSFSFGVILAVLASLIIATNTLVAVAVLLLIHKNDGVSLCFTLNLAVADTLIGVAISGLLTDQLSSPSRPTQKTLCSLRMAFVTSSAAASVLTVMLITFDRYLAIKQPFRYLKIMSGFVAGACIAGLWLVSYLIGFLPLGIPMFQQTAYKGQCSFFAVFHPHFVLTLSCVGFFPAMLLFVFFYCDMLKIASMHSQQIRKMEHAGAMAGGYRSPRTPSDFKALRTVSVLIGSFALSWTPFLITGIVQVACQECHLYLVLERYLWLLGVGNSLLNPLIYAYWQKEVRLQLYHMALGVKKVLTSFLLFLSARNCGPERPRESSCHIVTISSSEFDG
T6 sequence (P28223 whole entry): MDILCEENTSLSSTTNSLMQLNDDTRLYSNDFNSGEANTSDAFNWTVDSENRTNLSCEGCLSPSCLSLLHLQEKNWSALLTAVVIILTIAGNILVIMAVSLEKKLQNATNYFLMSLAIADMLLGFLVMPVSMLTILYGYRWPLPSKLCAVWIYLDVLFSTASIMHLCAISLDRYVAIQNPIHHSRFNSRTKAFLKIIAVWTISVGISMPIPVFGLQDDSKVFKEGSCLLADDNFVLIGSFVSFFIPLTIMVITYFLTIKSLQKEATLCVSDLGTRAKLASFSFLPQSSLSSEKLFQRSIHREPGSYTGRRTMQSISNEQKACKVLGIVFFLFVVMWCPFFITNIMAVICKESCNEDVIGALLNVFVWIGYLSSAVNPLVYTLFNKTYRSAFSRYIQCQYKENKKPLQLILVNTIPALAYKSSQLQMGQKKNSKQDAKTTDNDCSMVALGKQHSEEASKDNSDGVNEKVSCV
T7 sequence (P21554 whole entry): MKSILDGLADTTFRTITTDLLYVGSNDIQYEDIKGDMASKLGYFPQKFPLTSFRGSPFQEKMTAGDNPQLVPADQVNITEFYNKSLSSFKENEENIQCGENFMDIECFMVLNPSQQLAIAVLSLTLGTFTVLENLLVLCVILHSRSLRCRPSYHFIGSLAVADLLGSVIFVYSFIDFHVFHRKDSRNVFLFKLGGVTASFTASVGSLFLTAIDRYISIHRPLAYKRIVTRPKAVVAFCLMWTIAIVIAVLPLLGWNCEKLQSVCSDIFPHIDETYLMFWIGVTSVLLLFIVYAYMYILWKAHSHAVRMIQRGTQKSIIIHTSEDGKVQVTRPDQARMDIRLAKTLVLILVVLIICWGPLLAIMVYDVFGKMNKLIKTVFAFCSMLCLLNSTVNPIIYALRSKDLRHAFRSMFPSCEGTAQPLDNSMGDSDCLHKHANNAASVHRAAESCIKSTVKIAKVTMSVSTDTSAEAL
T2 sequence (P34972 whole entry): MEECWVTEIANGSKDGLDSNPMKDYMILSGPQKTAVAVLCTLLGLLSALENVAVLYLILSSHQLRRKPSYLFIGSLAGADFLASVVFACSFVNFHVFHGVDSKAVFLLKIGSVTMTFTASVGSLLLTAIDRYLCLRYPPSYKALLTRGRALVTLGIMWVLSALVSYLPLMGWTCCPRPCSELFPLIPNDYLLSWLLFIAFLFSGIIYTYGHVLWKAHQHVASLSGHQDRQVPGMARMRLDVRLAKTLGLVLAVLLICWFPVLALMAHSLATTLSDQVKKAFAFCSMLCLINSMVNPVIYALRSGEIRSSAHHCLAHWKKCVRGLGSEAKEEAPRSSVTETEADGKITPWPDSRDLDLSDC

SMILES: CC(=O)N[C@@H](CCCC#C/C=C/Cl)CCCCCCC(Cl)Cl [Compound 4, taveuniamide F]
- IC50 [1, 8]: 7.4 µM and 7.38 µM
- inhibition [1, 9]: ≥ 80%
- inhibition at 20 µM [1, 9]: 98.9%
- inhibition at 20 µM [2]: 48.6%
- IC50 [3, 8]: 14 µM and 14.1 µM
- inhibition [3, 9]: ≥ 80%
- inhibition at 20 µM [3, 9]: 79.8%
- IC50 ([4]; antagonist dose–response, 10-point, HEK293 cells, 30 min): 11.7 µM
- inhibition [4, 9]: 114% and ≥ 80%
- IC50 [5, 8]: 4.7 µM and 4.72 µM
- inhibition [5, 9]: ≥ 80%
- inhibition at 20 µM [5, 9]: 96.9%
- IC50 ([6]; antagonist dose–response, 10-point, U2OS cells, 30 min): 4.8 µM and 4.83 µM
- inhibition [6, 9]: ≥ 80%
- inhibition at 20 µM [6, 9]: 84.9%
- IC50 [7]: 37.7 µM
- Ki [7]: 34 µM

Source: PMC10817531, “Chlorinated Enyne Fatty Acid Amides from a Marine Cyanobacterium: Discovery of Taveuniamides L-M and Pharmacological Characterization of Taveuniamide F as a GPCR Antagonist with CNR1 Selectivity” (Marine Drugs, 2023)
